#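 GI50 = concentration required for 50% inhibition of growth. TGI is the concentration that stops growth completely.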
# What was measured:
# Test in all cases: DTP human tumour cell line panel, 384-well format
# [1] = system: HCT-15 colon
# [2] = system: BT-549 breast
# [3] = system: KM12 colon
# [4] = system: SK-MEL-2 melanoma
# [5] = system: U251 glioblastoma
# [6] = system: TK-10 renal
# [7] = system: RPMI-8226 leukemia
# [8] = system: HCT-116 colon
# [9] = system: HOP-92 NSCLC
# [10] = system: LOX IMVI melanoma
# [11] = system: SF-268 CNS
# [12] = system: M14 melanoma
# [13] = system: SK-OV-3 ovarian
# [14] = system: HOP-62 NSCLC
# [15] = system: MALME-3M melanoma
# [16] = system: A498 renal
# [17] = system: HT29 colon
# [18] = system: NCI-H23 lung
# [19] = system: IGROV1 ovarian
# [20] = system: ACHN renal
# [21] = system: MOLT-4 leukemia
# [22] = system: SNB-75 CNS
# [23] = system: SW-620 colon
# [24] = system: SF-295 CNS
# [25] = system: HS 578T breast
# [26] = system: SF-539 CNS
# [27] = system: K-562 leukemia
# [28] = system: MDA-MB-468 breast
# [29] = system: A549 NSCLC
# [30] = system: MDA-MB-435 melanoma
# [31] = system: EKVX NSCLC
# [32] = system: SN12C renal
# [33] = system: CCRF-CEM leukemia
# [34] = system: UACC-62 melanoma
# [35] = system: OVCAR-8 ovarian
# [36] = system: RXF 393 renal
# [37] = system: PC-3 prostate
# [38] = system: SK-MEL-28 melanoma
# [39] = system: UO-31 renal
# [40] = system: SR leukemia
# [41] = system: MCF7 breast
# [42] = system: NCI-H226 lung
# [43] = system: UACC-257 melanoma
# [44] = system: T-47D breast
# [45] = system: CAKI-1 renal
# [46] = system: OVCAR-3 ovarian
# [47] = system: MDA-MB-231 breast
smiles,measurement,setting,value
N#Cc1cnc(Nc2cc(NC[C@H]3CNCCO3)c(C(F)(F)F)cn2)cn1,GI50,[1],5.16 µM
same,TGI,[1],> 65.1 µM
same,GI50,[2],0.377 µM
same,TGI,[2],1.71 µM
same,GI50,[3],1.67 µM
same,TGI,[3],18 µM
same,GI50,[4],10.8 µM
same,TGI,[4],22.7 µM
same,GI50,[5],17.4 µM
same,TGI,[5],39.7 µM
same,GI50,[6],1.14 µM
same,TGI,[6],10.2 µM
same,GI50,[7],1.21 µM
same,TGI,[7],5.28 µM
same,GI50,[8],17.5 µM
same,TGI,[8],47.5 µM
same,GI50,[9],0.504 µM
same,TGI,[9],9.53 µM
same,GI50,[10],14.9 µM
same,TGI,[10],32.6 µM
same,GI50,[11],14.4 µM
same,TGI,[11],30.1 µM
same,GI50,[12],0.292 µM
same,TGI,[12],0.785 µM
same,GI50,[13],2.33 µM
same,TGI,[13],11 µM
same,GI50,[14],3.75 µM
same,TGI,[14],16.8 µM
same,GI50,[15],7.25 µM
same,TGI,[15],22.9 µM
same,GI50,[16],0.234 µM
same,TGI,[16],0.531 µM
same,GI50,[17],20.6 µM
same,TGI,[17],> 74.7 µM
same,GI50,[18],0.508 µM
same,TGI,[18],12.3 µM
same,GI50,[19],9.13 µM
same,TGI,[19],47.6 µM
same,GI50,[20],0.305 µM
same,TGI,[20],1.22 µM
same,GI50,[21],0.404 µM
same,TGI,[21],1.34 µM
same,GI50,[22],14.7 µM
same,TGI,[22],27.9 µM
same,GI50,[23],16.8 µM
same,TGI,[23],39.4 µM
same,GI50,[24],0.946 µM
same,TGI,[24],4.12 µM
same,GI50,[25],0.337 µM
same,TGI,[25],2.22 µM
same,GI50,[26],0.38 µM
same,TGI,[26],1.18 µM
same,GI50,[27],0.58 µM
same,TGI,[27],2.23 µM
same,GI50,[28],13.9 µM
same,TGI,[28],27.2 µM
same,GI50,[29],21.5 µM
same,TGI,[29],> 100 µM
same,GI50,[30],1.77 µM
same,TGI,[30],10.5 µM
same,GI50,[31],14.5 µM
same,TGI,[31],34 µM
same,GI50,[32],18.3 µM
same,TGI,[32],38.5 µM
same,GI50,[33],0.333 µM
same,TGI,[33],0.976 µM
same,GI50,[34],7.66 µM
same,TGI,[34],21 µM
same,GI50,[35],1.66 µM
same,TGI,[35],22.2 µM
same,GI50,[36],0.272 µM
same,TGI,[36],0.715 µM
same,GI50,[37],16.4 µM
same,TGI,[37],40.3 µM
same,GI50,[38],18.1 µM
same,TGI,[38],35.6 µM
same,GI50,[39],0.588 µM
same,TGI,[39],> 100 µM
same,GI50,[40],0.0572 µM
same,TGI,[40],0.186 µM
same,GI50,[41],0.728 µM
same,TGI,[41],20.7 µM
same,GI50,[42],20.1 µM
same,TGI,[42],54.1 µM
same,GI50,[43],17.6 µM
same,TGI,[43],31.8 µM
same,GI50,[44],25.4 µM
same,TGI,[44],51.3 µM
same,GI50,[45],12.2 µM
same,TGI,[45],53.8 µM
same,GI50,[46],9.42 µM
same,TGI,[46],25.4 µM
same,GI50,[47],16.8 µM
same,TGI,[47],42.3 µM

# — PubChem BioAssay (NCI)
